The source of these data is US11981680B2, “Substituted thienopyrroles as PAD4 inhibitors” (BRISTOL-MYERS SQUIBB COMPANY, priority 2018, dated 2024).

By IC50 is commonly meant the concentration that gives 50% inhibition. Read a high IC50 as weaker potency in that assay.

This assay deals with human PAD4 (hPAD4) (Homo sapiens (Human), UniProt Q9UM07). The assay is described as follows: RFMS Human PAD4 Functional Assay. Type of assay: biochemical. The following applies: rapid-fire mass spectrum (RFMS) assay; 5 nM hPAD4 enzyme, 250 μM BAEE, 30 min preincubation at 37° C. The method, then: Compounds of the present invention were assayed as inhibitors of PAD4 using the assay protocol described below.
Chain of human PAD4 (hPAD4) (Q9UM07 whole entry): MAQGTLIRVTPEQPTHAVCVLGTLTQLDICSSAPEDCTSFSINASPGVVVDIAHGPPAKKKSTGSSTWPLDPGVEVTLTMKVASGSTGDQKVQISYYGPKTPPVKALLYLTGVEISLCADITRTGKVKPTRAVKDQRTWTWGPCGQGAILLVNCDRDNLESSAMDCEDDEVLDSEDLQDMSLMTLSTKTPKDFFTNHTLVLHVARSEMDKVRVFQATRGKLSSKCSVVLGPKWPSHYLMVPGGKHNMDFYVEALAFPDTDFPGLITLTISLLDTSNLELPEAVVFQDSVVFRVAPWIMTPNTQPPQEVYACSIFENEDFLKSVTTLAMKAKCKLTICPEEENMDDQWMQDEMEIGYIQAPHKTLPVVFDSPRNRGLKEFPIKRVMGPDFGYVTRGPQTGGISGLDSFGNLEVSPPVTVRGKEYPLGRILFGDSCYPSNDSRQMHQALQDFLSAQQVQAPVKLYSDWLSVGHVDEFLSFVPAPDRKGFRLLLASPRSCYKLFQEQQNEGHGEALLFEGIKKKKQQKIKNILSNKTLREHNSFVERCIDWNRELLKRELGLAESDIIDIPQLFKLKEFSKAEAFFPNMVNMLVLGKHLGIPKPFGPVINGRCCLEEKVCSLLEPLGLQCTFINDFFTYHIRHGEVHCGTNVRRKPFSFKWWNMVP
RFMS Human PAD4 Functional Assay:
Compounds were solubilized in 100% DMSO to achieve a10 mM compound concentration. Compound stock solutions were stored at RT. A series of dilutions were prepared in DMSO and mixed 8 times with 20 μL mixing volume. Final top concentration of compound in the assay is 50 μM. Final assay conditions were as follows: • Reaction volume: 26 μl • Assay buffer: 25 mM hepes, pH 7.5, 5 mM NaCl, 1 mM DTT, 0.2 mg/ml BSA, 0.01% CHAPS, 50 μM Calcium, and 5 μM TPEN • Final concentrations: 5 nM hPAD4 enzyme, 250 μM BAEE, and 0.5% DMSO • Total incubation time: 30 mins compound and enzyme preincubation at 37° C., 90 min enzyme/substrate reaction, 30 min reaction with phenyl glyoxal at 37° C. • Stop solution: 40 μl 5% TCA in ACN
0.13 μL of compound solution was added to 13 μL of 10 nM PAD4 in assay buffer. After 30 min 13 μl of 500 μM of BAEE was added in 25 mM hepes, pH 7.5, 5 mM NaCl, 1 mM DTT, 0.2 mg/ml BSA, 0.01% CHAPS, 50 μM Calcium, 5 μM TPEN was added and the reaction incubated for 90 min at 37° C. The enzymatic reaction was quenched by addition of 15 μl of 6.1N TCA, 100% Final Concentration is 20%, 35 μl of 8.5 mM phenyl glyoxal (final concentration 4 mM) is then added and the reaction is incubated for 30 min at 37° C.
After 30 minutes the plates are spun down to remove all precipitate. The enzyme reaction was quenched with an equal volume of methanol containing internal standard (modified citrulline). Samples were loaded onto the Rapid Fire RF300 system (Agilent) wherein they were first sipped for 1000 ms and then directly loaded to a C18 separations cartridge using a mixture of acetonitrile containing 0.01% formic acid for 3000 ms desalting. The flow rate of the mobile phase was 1.5 ml/min. Once the samples were eluted from the cartridge, a mobile phase of acetonitrile containing 0.01% formic acid was used to move the samples into the mass spectrometer for 4000 ms at a flow rate of 1.25 ml/min/Sciex API5500 triple quadrupole mass spectrometer (Applied Biosystems) equipped with ESI was used to analyze the peptidyl citrulline and internal standard ions.
MRM transition of product and internal standard were monitored at m/z 424.5 to 350.4 and m/z 293 to 247 respectively. The dwell time for each transition was set at 200 ms, and the ESI voltage was used at 5500 with a source temperature of 400° C. Extracted ion peaks for each transition were integrated using the Rapid Fire Integrator software. Peak area of analyte was normalized with internal standard.).
The compound `COc1cc(C(=O)N2C[C@H]3CC[C@@H]2[C@@H]3N)cc2nc(-c3cc4scc(CC5CNC5)c4n3CC3CC3)n(C)c12` [Example 18, ((1R,4R,7R)-7-amino-2-azabicyclo[2.2.1]heptan-2-yl)(2-(3-(azetidin-3-ylmethyl)-4-(cyclopropylmethyl)-4H-thieno[3,2-b]pyrrol-5-yl)-7-methoxy-1-methyl-1H-benzo[d]imidazol-5-yl)methanone] registered an IC50 of 165 nM.

On to `COc1cc(C(=O)N2C[C@H]3CC[C@@H]2[C@@H]3N)cc2nc(-c3cc4scc(CC(CN)CCl)c4n3CC3CC3)n(C)c12` (stereo partly drawn) [Example 19, (2-(3-(3-amino-2-(chloromethyl)propyl)-4-(cyclopropylmethyl)-4H-thieno[3,2-b]pyrrol-5-yl)-7-methoxy-1-methyl-1H-benzo[d]imidazol-5-yl)((1R,4R,7R)-7-amino-2-azabicyclo[2.2.1]heptan-2-yl)methanone], for which the half-maximal inhibitory concentration (IC50) is 70 nM.

As for `COc1cc(C(=O)N2C[C@H]3CC[C@@H]2[C@@H]3N)cc2nc(-c3cc4scc(C5CC6(CNC6)C5)c4n3CC3CC3)n(C)c12` [Example 20, ((1R,4R,7R)-7-amino-2-azabicyclo[2.2.1]heptan-2-yl)(2-(4-(cyclopropylmethyl)-3-(2-azaspiro[3.3]heptan-6-yl)-4H-thieno[3,2-b]pyrrol-5-yl)-7-methoxy-1-methyl-1H-benzo[d]imidazol-5-yl)methanone], the 50% inhibitory concentration (IC50) was 36 nM.

As to `COc1cc(C(=O)N2C[C@H]3CC[C@@H]2[C@@H]3N)cc2nc(-c3cc4scc(C5CN(C(C)=O)C5)c4n3CC3CC3)n(C)c12` [Example 23, 1-(3-(5-(5-((1R,4R,7R)-7-amino-2-azabicyclo[2.2.1]heptane-2-carbonyl)-7-methoxy-1-methyl-1H-benzo[d]imidazol-2-yl)-4-(cyclopropylmethyl)-4H-thieno[3,2-b]pyrrol-3-yl)azetidin-1-yl)ethan-1-one], the IC50 was 55 nM.

Consider `COc1cc(C(=O)N2C[C@H]3CC[C@@H]2[C@@H]3N)cc2nc(-c3cc4sc(Br)cc4n3CC3CC3)n(C)c12` [Example 24, ((1R,4R,7R)-7-Amino-2-azabicyclo[2.2.1]heptan-2-yl)(2-(2-bromo-4-(cyclopropylmethyl)-4H-thieno[3,2-b]pyrrol-5-yl)-7-methoxy-1-methyl-1H-benzo[d]imidazol-5-yl)methanone], for which the midpoint of inhibition, the IC50, lay at 41 nM.

`COc1cc(C(=O)N2C[C@H]3CC[C@@H]2[C@@H]3N)cc2nc(-c3cc4sc(-c5ccncc5)cc4n3CC3CC3)n(C)c12` [Example 25, ((1R,4R,7R)-7-Amino-2-azabicyclo[2.2.1]heptan-2-yl)(2-(4-(cyclopropylmethyl)-2-(pyridin-4-yl)-4H-thieno[3,2-b]pyrrol-5-yl)-7-methoxy-1-methyl-1H-benzo[d]imidazol-5-yl)methanone]: the half-inhibitory concentration (IC50) is 179 nM.

As for `COc1cc(C(=O)N2C[C@H]3CC[C@@H]2[C@@H]3N)cc2nc(-c3cc4sc(-c5cn[nH]c5)cc4n3CC3CC3)n(C)c12` [Example 26, ((1R,4R,7R)-7-amino-2-azabicyclo[2.2.1]heptan-2-yl)(2-(4-(cyclopropylmethyl)-2-(1H-pyrazol-4-yl)-4H-thieno[3,2-b]pyrrol-5-yl)-7-methoxy-1-methyl-1H-benzo[d]imidazol-5-yl)methanone], the half-maximal inhibitory concentration (IC50) worked out at 107 nM.

Compound `COc1cc(C(=O)N2C[C@H]3CC[C@@H]2[C@@H]3N)cc2nc(-c3cc4sc(C)cc4n3CC3CC3)n(C)c12` [Example 27, ((1R,4R,7R)-7-amino-2-azabicyclo[2.2.1]heptan-2-yl)(2-(4-(cyclopropylmethyl)-2-methyl-4H-thieno[3,2-b]pyrrol-5-yl)-7-methoxy-1-methyl-1H-benzo[d]imidazol-5-yl)methanone] displayed an IC50 of 62 nM. This IC50 is about 1.7-fold lower than that of the compound before.

On to `COc1cc(C(=O)N2C[C@H](N)C[C@@H](F)C2)cc2nc(-c3cc4sc(C)cc4n3CC3CC3)n(C)c12` [Example 28, ((3R,5R)-3-amino-5-fluoropiperidin-1-yl)(2-(4-(cyclopropylmethyl)-2-methyl-4H-thieno[3,2-b]pyrrol-5-yl)-7-methoxy-1-methyl-1H-benzo[d]imidazol-5-yl)methanone], for which the midpoint of inhibition, the IC50, lay at 67 nM.

Regarding `COc1cc(C(=O)N2C[C@H]3CC[C@@H]2[C@@H]3N)cc2nc(-c3cc4sccc4n3CC3CC3)n(C)c12` [Example 29, ((1R,4R,7R)-7-amino-2-azabicyclo[2.2.1]heptan-2-yl)(2-(4-(cyclopropylmethyl)-4H-thieno[3,2-b]pyrrol-5-yl)-7-methoxy-1-methyl-1H-benzo[d]imidazol-5-yl)methanone], half-maximal inhibition (IC50) was put at 84 nM.

The compound `COc1cc(C(=O)N2C[C@H](N)C[C@@H](F)C2)cc2nc(-c3cc4sccc4n3CC3CC3)n(C)c12` [Example 30, ((3R,5R)-3-amino-5-fluoropiperidin-1-yl)(2-(4-(cyclopropylmethyl)-4H-thieno[3,2-b]pyrrol-5-yl)-7-methoxy-1-methyl-1H-benzo[d]imidazol-5-yl)methanone] yielded a concentration for half-maximal inhibition (IC50) of 86 nM.

Turning to `COc1cc(C(=O)N2C[C@H](N)C[C@@H](F)C2)cc2nc(-c3cc4scc(Br)c4n3CC3CC3)n(C)c12` [Example 31, ((3R,5R)-3-amino-5-fluoropiperidin-1-yl)(2-(3-bromo-4-(cyclopropylmethyl)-4H-thieno[3,2-b]pyrrol-5-yl)-7-methoxy-1-methyl-1H-benzo[d]imidazol-5-yl)methanone], the IC50 amounted to 60 nM.

Consider `COc1cc(C(=O)N2C[C@H]3CC[C@@H]2[C@@H]3N)cc2nc(-c3cc4scc(-c5cnn(C)c5)c4n3CC3CC3)n(C)c12` [Example 32, ((1R,4R,7R)-7-amino-2-azabicyclo[2.2.1]heptan-2-yl)(2-(4-(cyclopropylmethyl)-3-(1-methyl-1H-pyrazol-4-yl)-4H-thieno[3,2-b]pyrrol-5-yl)-7-methoxy-1-methyl-1H-benzo[d]imidazol-5-yl)methanone], for which the IC50 amounted to 17 nM.

Consider `COc1cc(C(=O)N2C[C@H](N)C[C@@H](F)C2)cc2nc(-c3cc4scc(-c5cnn(C)c5)c4n3CC3CC3)n(C)c12` [Example 33, ((3R,5R)-3-amino-5-fluoropiperidin-1-yl)(2-(4-(cyclopropylmethyl)-3-(1-methyl-1H-pyrazol-4-yl)-4H-thieno[3,2-b]pyrrol-5-yl)-7-methoxy-1-methyl-1H-benzo[d]imidazol-5-yl)methanone], for which the 50% inhibitory concentration (IC50) is 50 nM.

`COc1cc(C(=O)N2C[C@H]3CC[C@@H]2[C@@H]3N)cc2nc(-c3cc4scc(-c5ccn(C(C)C)n5)c4n3CC3CC3)n(C)c12` [Example 34, ((1R,4R,7R)-7-amino-2-azabicyclo[2.2.1]heptan-2-yl)(2-(4-(cyclopropylmethyl)-3-(1-isopropyl-1H-pyrazol-3-yl)-4H-thieno[3,2-b]pyrrol-5-yl)-7-methoxy-1-methyl-1H-benzo[d]imidazol-5-yl)methanone]: inhibition was half-maximal at 48 nM (IC50).

The compound `COc1cc(C(=O)N2C[C@H]3CC[C@@H]2[C@@H]3N)cc2nc(-c3cc4scc(-c5ccc(O)c(Cl)c5)c4n3CC3CC3)n(C)c12` [Example 35, ((1R,4R,7R)-7-amino-2-azabicyclo[2.2.1]heptan-2-yl)(2-(3-(3-chloro-4-hydroxyphenyl)-4-(cyclopropylmethyl)-4H-thieno[3,2-b]pyrrol-5-yl)-7-methoxy-1-methyl-1H-benzo[d]imidazol-5-yl)methanone] registered an IC50 of 150 nM.

As to `COc1cc(C(=O)N2C[C@H]3CC[C@@H]2[C@@H]3N)cc2nc(-c3cc4scc(-c5ccc(O)c(F)c5)c4n3CC3CC3)n(C)c12` [Example 36, ((1R,4R,7R)-7-amino-2-azabicyclo[2.2.1]heptan-2-yl)(2-(4-(cyclopropylmethyl)-3-(3-fluoro-4-hydroxyphenyl)-4H-thieno[3,2-b]pyrrol-5-yl)-7-methoxy-1-methyl-1H-benzo[d]imidazol-5-yl)methanone], inhibition was half-maximal at 59 nM (IC50). This IC50 is about 2.5-fold lower than that of the compound before.

The compound `COc1cc(C(=O)N2C[C@H]3CC[C@@H]2[C@@H]3N)cc2nc(-c3cc4scc(-c5ccn(C)n5)c4n3CC3CC3)n(C)c12` [Example 37, ((1R,4R,7R)-7-amino-2-azabicyclo[2.2.1]heptan-2-yl)(2-(4-(cyclopropylmethyl)-3-(1-methyl-1H-pyrazol-3-yl)-4H-thieno[3,2-b]pyrrol-5-yl)-7-methoxy-1-methyl-1H-benzo[d]imidazol-5-yl)methanone] gave an IC50 of 54 nM.
